This note sets out measurements from a melting point compilation (Tetko et al.; mined from patent text by program, amines drawn as free bases though some values may be those of a salt).

Take `Cc1ccc(NS(=O)(=O)c2ccc(N3CCNC3=O)cc2)cc1`: the melting point was in the range of 218 to 220 °C. For `COC(=O)C1=C(C)Nc2c(c(=O)n(C)c(=O)n2C)C1c1cccc(Cl)c1` (configuration not stated), the melting point stood at 230 °C. Compound `Cc1c(F)cc(C(=O)O)c(Cl)c1[N+](=O)[O-]` yielded a melting point of 186 to 188 °C.

For `O=C1NC(=O)C(Sc2ccc3ccccc3c2Br)S1` (configuration not stated), the melting point fell in the range of 128 to 129 °C. `Cc1cc(Br)c2c(c1)/C(=N\NC(N)=O)C(=O)N2CCN(C(C)C)C(C)C` had a melting point of 189 to 192 °C. Regarding `CC(C)n1nc(-c2c(NCc3ccccn3)nc(N)nc2-c2ccccc2)ccc1=O`, the melting point fell in the range of 196 to 198 °C. As to `CCCCCCC(=O)Nc1ccn(C2OC(CO)C(O)C2O)c(=O)n1` (configuration not stated), the melting point was in the range of 131 to 136 °C.

As for `Cc1ccc(S(=O)(=O)n2ccc3c(CO)cccc32)cc1`, the melting point fell in the range of 125 to 126 °C. Turning to `CCc1cc(C(F)(C(F)(F)F)C(F)(F)C(F)(F)F)cc(C)c1NC(=O)c1cccc(NC(=O)c2ccc(C#N)cc2C)c1OC` (configuration not stated), the melting point fell in the range of 104 to 105 °C. The compound `O=C(Nc1ccc(-n2nc(C(F)(F)F)cc2C(F)(F)F)cc1)c1ccccc1` registered a melting point of 177 to 178 °C. The compound `C(=Cc1ccc(-c2cc3cc(-c4ccccc4)ccc3o2)cc1)c1ccc(-c2ccccc2)cc1` yielded a melting point of 356 to 358 °C. In the case of `Cc1cccc(C)c1N1CN(C)CN(C)C1=S`, the melting point was in the range of 121 to 123 °C. `CN(Cc1cccc2c1C(=O)N(C1CCC(=O)NC1=O)C2=O)C(=O)c1ccco1` (configuration not stated) returned a melting point of 184 to 186 °C. Take `COc1cc2ncc(C#N)c(Nc3ccc(Cl)cc3C)c2cc1OC`: the melting point fell in the range of 227 to 229 °C. The compound `COc1ccc(C2(C(=O)Oc3ccc(C(=O)NO)cc3)CCCCC2)cc1` gave a melting point of 127 to 129 °C. `COC(=O)C(COC(C)=O)C(=O)OC(C)(C)C` (configuration not stated) returned a melting point of 61 to 62 °C. The figure for `O=C(O)C(Cc1ccccc1)Cn1ccnc1` (racemic) is 159 to 163 °C; for `O=C(O)C(O)c1cccnc1` (configuration not stated) it is 140 °C. As to `COC(=O)C1=C[C@@H](OC(C)C)[C@H](NC(C)=O)[C@@H](CCO)C1`, the melting point was in the range of 118 to 119 °C. The figure for `CC(Cl)C(=O)Nc1cccc2c1C(=O)c1cccc(NC(=O)C(C)Cl)c1C2=O` (configuration not stated) is 288 to 289 °C; for `CN(C(=O)OC(C)(C)C)c1cc(Oc2ccc(-c3nnn(C(c4ccccc4)(c4ccccc4)c4ccccc4)n3)cc2)ccc1N` it is 192 to 193 °C; for `COc1ccc(COC(=O)CC(=O)Oc2cc(-c3cn4c(n3)sc3ccccc34)ccc2Cl)cc1` it is 113 to 115 °C.

The compound `CC1(C)Oc2ccc(S(=O)(=O)c3ccccc3)cc2[C@@H](O)[C@@H]1Br` (relative stereo) came in with a melting point of 103 to 105 °C. In the case of `CCCCn1nc(C(C)C)c(C(=O)O)c1Cc1ccc(-c2ccccc2-c2nnn[nH]2)cc1`, the melting point was in the range of 103 to 108 °C.

As to `CNc1nc(-c2cccc(-c3cccc(-c4ccccc4)c3)c2)c2cc(OC)c(OC)cc2n1`, the melting point fell in the range of 193 to 195 °C. Compound `CCC(C)N(C(=O)c1cc(-c2ccccc2Cl)nc2ccccc12)C(C)CC` (configuration not stated) came in with a melting point of 120 °C. In the case of `CC(=O)OCc1cc(=O)c(Oc2ccc(F)cc2)c(-c2ccc(S(C)(=O)=O)cc2)o1`, the melting point is 180 °C. On to `O=Cc1cc2c(ccc3c4ccccc4ccc23)o1`, for which the melting point came out at 169 °C. Compound `CCCCc1c(/C=C/C(=O)O)ccc2c(OC)cccc12` registered a melting point of 202 to 204 °C. As to `CC(C)(c1ccccc1)c1cccc(S(=O)(=O)NC(CCCNC(=N)N)C(=O)N2CCC(CC(=O)O)CC2)c1` (configuration not stated), the melting point was in the range of 188 to 191 °C. `CC(=O)Nc1cc(C)cc(Br)n1` returned a melting point of 190 °C. The figure for `CC(C)(C)c1ccc(-c2c(Cl)c(CN3C(=O)CCC3=O)nc3sc4c(c23)CCN(Cc2ccccc2)C4)cc1` is 198 to 199 °C; for `CC(C)(C)OC(=O)NC[C@H]1CC[C@H](CO)CC1` it is 88 to 89 °C. Compound `Sc1nccn1Cc1ccccc1Cl` registered a melting point of 206 to 207 °C.

For the compound `CC(=O)N[C@@H](C)CO[C@H]1CC[C@H](n2cc3ccc(OCCC4CC4)cc3n2)CC1`, the melting point fell in the range of 98 to 99 °C. Turning to `Cc1nc2c([N+](=O)[O-])cc(Br)cc2n1COCc1ccccc1`, the melting point lay in the range of 106 to 109 °C.

The compound `O=c1[nH]ccc2c1c(O)nc1cc(Cl)ccc12` registered a melting point of 340 to 342 °C. On to `CC1(C(=O)c2c[nH]c3ncc(Br)nc23)CCCC1`, for which the melting point lay within 207 to 208 °C. On to `Cc1nnsc1C(=O)NS(C)(=O)=O`, for which the melting point stood at 187 °C. In turn, `CCCCOC(=O)Nc1cccc(NC(=O)C=C(C)OC)c1` showed a melting point of 100 °C. Consider `CC(N)Cn1ncc2ccc3c(c21)C(N)C(O)CO3` (configuration not stated), for which the melting point was in the range of 84 to 88 °C. In turn, `COc1cc(Nc2nc3ccnc(-c4ccc(N)cc4)c3o2)cc(OC)c1OC` showed a melting point of 148 to 151 °C.

Compound `CC1CCOC(CBr)(c2ccc(Cl)cc2Cl)O1` (configuration not stated) displayed a melting point of 69 to 70.5 °C. In turn, `O=C(Cl)Oc1cccc(NC(=O)C2CC2)c1` showed a melting point of 94 °C. `O=C(O)c1cccc(-c2nc(-c3ccc(Cl)cc3)cs2)c1` registered a melting point of 265 to 266 °C. The compound `CN1Cc2c(-c3nc(CN4Cc5ccccc5C4)no3)ncn2-c2ccccc2C1=O` registered a melting point of 155 to 160 °C.

In turn, `CC(=O)N1CCN(CCCOc2ccc(NC(=O)c3cc(F)cc(N4CCCCC4)c3)c3ccccc23)CC1` returned a melting point of 210 to 211 °C. `NC(=O)CN1C(=O)CC2Cc3c(Cl)cccc3C21` (configuration not stated) returned a melting point of 186 to 188 °C.

In turn, `O=C(N[C@@H](CC1CCCCC1)C(=O)N[C@@H](Cc1ccccc1)C(=O)CSCc1ccco1)OCc1ccccc1` yielded a melting point of 124 to 125 °C. For the compound `COc1ccc(S(=O)(=O)N2CCc3cccc(-c4ccc(C(=O)O)cc4)c32)cc1`, the melting point fell in the range of 130 to 132 °C. `C=C1C(=O)c2ccccc2OC1c1ccc([N+](=O)[O-])cc1` (configuration not stated): the melting point lay in the range of 135 to 136 °C. The compound `CC(C)(C)C(=O)C(C(Sc1ccccc1)c1ccc(F)cc1)n1cncn1` (configuration not stated) registered a melting point of 175 °C.

For the compound `CS(=O)c1ccc(C2CCCC(=O)N2c2ccc(Cl)cc2)cc1` (configuration not stated), the melting point is 142 to 165 °C. Compound `O=C(Nc1ccc(C2(F)CCN(C(=O)OCc3ccccc3)CC2)c(F)c1)OCc1ccccc1` came in with a melting point of 116 to 118 °C. `Cc1cc(C#N)cc(C)c1OCCCc1cncs1` gave a melting point of 71 to 73 °C. For `CCOC(=O)C(C#N)=CNc1nccc2c1CCCC2` the value was 116 to 120 °C; for `CCOc1ccc(S(=O)(=O)Cl)cc1C(=O)OC`, 99 to 100 °C. The figure for `O=c1[nH]c(=O)n2c3c(cccc13)CC2` is 314 to 315 °C. `COC(=O)c1cc(C(=O)Nc2ccncc2)c2cc(Cc3ccc(F)cc3)cnc2c1O` yielded a melting point of 266 to 267 °C. In the case of `CCCCc1ccc(NC(=O)CCc2ccccc2)c(=O)n1CC(=O)O`, the melting point lay in the range of 132 to 134 °C. With `CC(C)OC(=O)c1ncn2c1[C@@H]1CCCN1C(=O)c1ccccc1-2`, the melting point lay in the range of 207 to 208 °C. For `O=C1c2cc(O)ccc2N(Cc2ccccc2)C2=NCCN12` the value was 225 to 227 °C.

Broadly, the melting point is the temperature of the solid-liquid transition.
